Laboratory results published in US10577332B2, “Tetrazole derivatives” (Hoffmann-La Roche Inc., priority 2015, dated 2020).

Tests used:
[1] = target: T1, human EAAT3 (Homo sapiens, UniProt P43005); assay: FLIPR Membrane Potential (FMP) assay; format: cell-based; settings: HEK-293 cells stably expressing human EAAT3; antagonist applied 15 min before L-glutamate at EC80; Kb by Cheng-Prusoff from IC50
T1 construct: expressed in transfected cells
T1 sequence (P43005 1-524): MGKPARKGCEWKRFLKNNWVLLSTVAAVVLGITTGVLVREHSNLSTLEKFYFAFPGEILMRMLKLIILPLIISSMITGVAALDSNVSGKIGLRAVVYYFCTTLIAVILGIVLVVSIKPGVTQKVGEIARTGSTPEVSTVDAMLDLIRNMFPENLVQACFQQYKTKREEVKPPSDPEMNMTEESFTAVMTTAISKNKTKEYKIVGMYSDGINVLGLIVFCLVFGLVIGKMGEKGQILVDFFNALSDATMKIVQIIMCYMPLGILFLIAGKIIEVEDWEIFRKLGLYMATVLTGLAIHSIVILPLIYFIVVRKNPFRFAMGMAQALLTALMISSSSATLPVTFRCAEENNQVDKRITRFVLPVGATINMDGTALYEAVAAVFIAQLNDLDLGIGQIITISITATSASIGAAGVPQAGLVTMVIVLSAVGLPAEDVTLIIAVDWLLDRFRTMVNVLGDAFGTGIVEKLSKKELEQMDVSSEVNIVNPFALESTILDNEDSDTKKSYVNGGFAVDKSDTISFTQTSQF
Experimental: The FLIPR Membrane Potential (FMP) Assay
HEK-293 cells stably expressing human EAAT3 were seeded at 55 000 cells/well in growth medium (DMEM glutamate free (Invitrogen 11960-044), 1% Pen Strep (10 ml/l GIBCO BRL No 15140-023), 10% FCS non dialysed heat inactivated, 5 mg/l puromycin) in poly-D-lysine treated 96-well black microtiter plates with clear-bottom. After 24 h, the growth medium was removed and 100 μl/well of Krebs buffer (140 mM NaCl, 4.7 mM KCl, 2.5 mM CaCl2, 1.2 mM MgCl2, 11 mM HEPES, 10 mM D-glucose, pH=7.4) added. The cells were then loaded by adding 100 μl/well FMP assay dye (FLIPR Membrane Potential assay reagent, Molecular Devices). The 96-well plates were then incubated at 37° C. for 1 h. The depolarization of the cells will cause more dye to enter in the cells, where it will bind to intracellular proteins and lipids and cause an increase in the fluorescence signal. Antagonist potency at human EAAT3 was determined by using L-glutamate as agonist at a concentration which gives 80% of the maximum response. The antagonists were applied 15 min before the application of the agonist L-glutamate. The assays were performed at room temperature and measurements done by using a Fluorometric Imaging Plate Reader (FLIPR, Molecular Devices) and filter #2. Responses were measured as peak increase in fluorescence minus basal (i.e. fluorescence without addition of L-glutamate). Kb was determined using the Cheng-Prusoff equation Kb=IC50/[1+(A/EC50)], where IC50 is the concentration of the antagonist producing 50% inhibition, A is the concentration of the agonist against which the IC50 is being determined (at EC80) and EC50 is the concentration of the agonist producing 50% […].

| SMILES | Kb [1] [nM] | melting point [°C] |
| --- | --- | --- |
| CCC(C)(C)NC(=O)c1cc(-c2ccc(OC)cc2)cc(-n2cnnn2)c1 [Example 7, 3-(4-Methoxyphenyl)-N-(2-methylbutan-2-yl)-5-(tetrazol-1-yl)-benzamide] | 410 | 150 |
| CCC(C)(C)NC(=O)c1cc(-c2ccc(C)cc2)cc(-n2nnnc2C(C)C)c1 [Example 10, N-(2-Methylbutan-2-yl)-3-(4-methylphenyl)-5-(5-propan-2-yltetrazol-1-yl)-benzamide] | 230 | 104 |
| CCC(C)(C)NC(=O)c1cc(-c2ccc(Cl)cc2)cc(-n2cnnn2)c1 [Example 11, 3-(4-Chlorophenyl)-N-(2-methylbutan-2-yl)-5-(tetrazol-1-yl)-benzamide] | 76 | 206 |
| CC(C)(C)NC(=O)c1cc(-c2ccc(Cl)cc2)cc(-n2cnnn2)c1 [Example 12, N-tert-Butyl-3-(4-chlorophenyl)-5-(tetrazol-1-yl)-benzamide] | 350 | 199 |
| Cc1ccc(-c2cc(C(=O)NC(C)(C)C(F)(F)F)cc(-n3cnnn3)c2)cc1 [Example 13, 3-(4-Methylphenyl)-5-(tetrazol-1-yl)-N-(1,1,1-trifluoro-2-methylpropan-2-yl)-benzamide] | 650 | 190.5 |
| Cc1ccc(-c2cc(C(=O)NC(C)(C)CO)cc(-n3nnnc3C(C)C)c2)cc1 [Example 14, N-(1-Hydroxy-2-methylpropan-2-yl)-3-(4-methylphenyl)-5-(5-propan-2-yltetrazol-1-yl)-benzamide] | 650 | 75 |
| CC(C)(CO)NC(=O)c1cc(-c2ccc(Cl)cc2)cc(-n2cnnn2)c1 [Example 15, 3-(4-Chlorophenyl)-N-(1-hydroxy-2-methylpropan-2-yl)-5-(tetrazol-1-yl)-benzamide] | 800 | 137 |
| CC(C)(NC(=O)c1cc(-c2ccc(F)cc2)cc(-n2cnnn2)c1)C(F)(F)F [Example 18, 3-(4-Fluorophenyl)-5-(tetrazol-1-yl)-N-(1,1,1-trifluoro-2-methylpropan-2-yl)-benzamide] | 430 | 175 |
| Cc1ccc(-c2cc(C(=O)NC(C)(C)C(F)(F)F)cc(-n3nnnc3C(C)C)c2)cc1 [Example 19, 3-(4-Methylphenyl)-5-(5-propan-2-yltetrazol-1-yl)-N-(1,1,1-trifluoro-2-methylpropan-2-yl)-benzamide] | 230 | 79 |
| Cc1ccc(-c2cc(C(=O)NC(C)(C)C3CC3)cc(-n3nnnc3C(C)C)c2)cc1 [Example 20, N-(2-Cyclopropylpropan-2-yl)-3-(4-methylphenyl)-5-(5-propan-2-yltetrazol-1-yl)-benzamide] | 310 | 78 |
| CC(C)(NC(=O)c1cc(-c2ccc(F)cc2)cc(-n2cnnn2)c1)C1CC1 [Example 21, N-(2-cyclopropylpropan-2-yl)-3-(4-fluorophenyl)-5-(tetrazol-1-yl)-benzamide] | 960 | 193 |
| Cc1ccc(-c2cc(C(=O)NC(C)(C)C)cc(-n3nnnc3C)c2)cc1 [Example 23, N-tert-Butyl-3-(4-methylphenyl)-5-(5-methyltetrazol-1-yl)-benzamide] | 290 | 85 |
| Cc1ccc(-c2cc(C(=O)NC(C)(C)C(F)(F)F)cc(-n3nnnc3C3CC3)c2)cc1 [Example 25, 3-(5-Cyclopropyltetrazol-1-yl)-5-(4-methylphenyl)-N-(1,1,1-trifluoro-2-methylpropan-2-yl)-benzamide] | 270 | 82 |
| CCc1nnnn1-c1cc(C(=O)NC(C)(C)C(F)(F)F)cc(-c2ccc(C)cc2)c1 [Example 26, 3-(5-Ethyltetrazol-1-yl)-5-(4-methylphenyl)-N-(1,1,1-trifluoro-2-methylpropan-2-yl)-benzamide] | 300 | 78 |
| CCC(C)(C)NC(=O)c1cc(-c2ccc(C)cc2)cc(-n2nnnc2C2CC2)c1 [Example 27, 3-(5-Cyclopropyltetrazol-1-yl)-N-(2-methylbutan-2-yl)-5-(4-methylphenyl)-benzamide] | 200 | 75 |
| CCc1nnnn1-c1cc(C(=O)NC(C)(C)CC)cc(-c2ccc(C)cc2)c1 [Example 28, 3-(5-Ethyltetrazol-1-yl)-N-(2-methylbutan-2-yl)-5-(4-methylphenyl)-benzamide] | 140 | 71.5 |
| Cc1ccc(-c2cc(C(=O)NC(C)(C)C)cc(-n3nnnc3C3CC3)c2)cc1 [Example 29, N-tert-Butyl-3-(5-cyclopropyltetrazol-1-yl)-5-(4-methylphenyl)-benzamide] | 200 | 91 |
| CCc1nnnn1-c1cc(C(=O)NC(C)(C)C)cc(-c2ccc(C)cc2)c1 [Example 30, N-tert-Butyl-3-(5-ethyltetrazol-1-yl)-5-(4-methylphenyl)-benzamide] | 210 | 73 |
| CC(C)(NC(=O)c1cc(-c2ccc(Cl)cc2)cc(-n2cnnn2)c1)C1CC1 [Example 31, 3-(4-Chlorophenyl)-N-(2-cyclopropylpropan-2-yl)-5-(tetrazol-1-yl)-benzamide] | 210 | 191 |
| Cc1ccc(-c2cc(C(=O)NC(C)(C)C3CC3)cc(-n3nnnc3C3CC3)c2)cc1 [Example 35, N-(2-Cyclopropylpropan-2-yl)-3-(5-cyclopropyltetrazol-1-yl)-5-(4-methylphenyl)-benzamide] | 450 | 74.5 |
| CCc1nnnn1-c1cc(C(=O)NC(C)(C)C2CC2)cc(-c2ccc(C)cc2)c1 [Example 36, N-(2-Cyclopropylpropan-2-yl)-3-(5-ethyltetrazol-1-yl)-5-(4-methylphenyl)-benzamide] | 350 | 59.5 |
| CCC(C)(C)NC(=O)c1cc(-c2ccc(Cl)c(Cl)c2)cc(-n2cnnn2)c1 [Example 38, 3-(3,4-Dichlorophenyl)-N-(2-methylbutan-2-yl)-5-(tetrazol-1-yl)-benzamide] | 700 | 206 |
| CCC(C)(C)NC(=O)c1cc(-c2ccc(F)c(F)c2)cc(-n2cnnn2)c1 [Example 39, 3-(3,4-Difluorophenyl)-N-(2-methylbutan-2-yl)-5-(tetrazol-1-yl)-benzamide] | 200 | 189 |
| CCC(C)(C)NC(=O)c1cc(-c2ccc(F)c(Cl)c2)cc(-n2cnnn2)c1 [Example 40, 3-(3-Chloro-4-fluorophenyl)-N-(2-methylbutan-2-yl)-5-(tetrazol-1-yl)-benzamide] | 570 | 205 |
| CC(C)(NC(=O)c1cc(-c2ccc(Cl)cc2)cc(-n2cnnn2)c1)C(F)(F)F [Example 41, 3-(4-Chlorophenyl)-5-(tetrazol-1-yl)-N-(1,1,1-trifluoro-2-methylpropan-2-yl)-benzamide] | 350 | 187 |
| CCC(C)(C)NC(=O)c1cc(-c2ccc(Cl)cc2)cc(-n2nnnc2C(C)C)c1 [Example 42, 3-(4-Chlorophenyl)-N-(2-methylbutan-2-yl)-5-(5-propan-2-yltetrazol-1-yl)-benzamide] | 160 | 85 |
| CC(C)c1nnnn1-c1cc(C(=O)NC(C)(C)C)cc(-c2ccc(Cl)cc2)c1 [Example 43, N-tert-Butyl-3-(4-chlorophenyl)-5-(5-propan-2-yltetrazol-1-yl)-benzamide] | 89 | 90 |
| CC(C)c1nnnn1-c1cc(C(=O)NC(C)(C)C2CC2)cc(-c2ccc(Cl)cc2)c1 [Example 44, 3-(4-Chlorophenyl)-N-(2-cyclopropylpropan-2-yl)-5-(5-propan-2-yltetrazol-1-yl)-benzamide] | 210 | 83 |
| CCC(C)(C)NC(=O)c1cc(-c2ccc(C(F)(F)F)cc2)cc(-n2nnnc2C(C)C)c1 [Example 46, N-(2-Methylbutan-2-yl)-3-(5-propan-2-yltetrazol-1-yl)-5-[4-(trifluoro-methyl)-phenyl]-benzamide] | 190 | 89 |
